Reference: patent US11352368B2, “Salt of fused ring pyrimidine compound, crystal form thereof and preparation method therefor and use thereof” (GUANGZHOU MAXINOVEL PHARMACEUTICALS CO., LTD., priority 2018, dated 2022)
In brackets after ≈: the same amount, converted by molar mass. Counter-ions that a name gives are not always drawn. Like-named read-outs stand apart in the source and are kept apart here. Blank lines part the entries; values can stand above or below the compound they belong to.

What was measured:
[1] = Solubility test of crystal form A and crystal form B in a medium (Example 12); assay type: physicochemical; conditions: for solubility: thermodynamic from solid, read-out: Solubility (calculated by free base of the fused ring pyrimidine compound); for Solubility (calculated by free base of the fused ring pyrimidine compound): in mg/mL (unit assumed); for solubility in pure water compared to free base: versus free base of the fused ring pyrimidine compound
Text: Example 12 Solubility Test of the Crystal Form A of the Fumarate of Fused Ring Pyrimidine Compound as Shown in Formula 2 and the Crystal Form B of the Adipate of Fused Ring Pyrimidine Compound as Shown in Formula 3 in a Medium

[2] = Solubility test of the salts in pure water (Example 6); assay type: physicochemical; conditions: for saturated solubility: room temperature, balancing about 20 hours, HPLC; for solubility in pure water compared with the free base: versus free base of the fused ring pyrimidine compound
Experimental: 2.0 mg of sample was precisely weighed into a liquid phase vial, 1.0 mL of purified water was added, the vial was subjected to ultrasonic treatment for about 30 seconds to disperse the samples evenly, then the vial was placed on a Labquaker rotator, and slowly rotated at room temperature for balancing. After balancing for about 20 hours, each vial was removed, and the solution was filtered with 0.45 μm nylon filter membrane. The filtrate was diluted by DMSO or not diluted and then detected by HPLC. At the same time, two parts of fused ring pyrimidine compounds were weighed and dissolved in DMSO to make standard solutions with concentration of 250 μg/mL and 500 μg/mL, respectively. The standard solutions were subjected to the HPLC detection. The sample concentration vs the peak area of HPLC principal component was used for make a standard curve, and the solubility of each sample in pure water was calculated by a external standard method.

[3] = Dynamic vapor sorption analysis (DVS); assay type: physicochemical; conditions: for XRPD of samples after DVS test: XRPD diffraction peaks before and after DVS test; for DVS weight gain from 0% RH to 95% RH: 25° C., 0% to 95% relative humidity, weight percentage
Experimental: (§1) 10 mg of the crystal form A of the fumarate of fused ring pyrimidine compound as shown in formula 2 was weighed, and dried for 60 min under the condition of a temperature of 25° C. and a humidity of 0% RH, and then the humidity absorption characteristic of the sample was tested when the humidity changed from 0% RH to 95% RH, and the dehumidification characteristic of the sample was tested when the humidity changed from 95% RH to 0% RH. Each step length for the humidity changes was 5% RH, the balance standard was that the weight change rate was less than 0.01%/min within 5 min, and the longest balance time was 2 hours.
as §1, with “form B” for “form A”, “the adipate” for “the fumarate”, “formula 3” for “formula 2”

[4] = Stability test (total impurities, 20 days); assay type: physicochemical; conditions: for chemical stability in the condition of high temperature and high humidity / stability under light conditions versus the compound of formula 1: 20 days
Experimental: The crystal form A of the fumarate of fused ring pyrimidine compound as shown in formula 2, the crystal form B of the adipate of fused ring pyrimidine compound as shown in formula 3 and the fused ring pyrimidine compound as shown in formula 1 were subjected to tests at a high temperature of 60° C., 25° C./60% RH, 40° C./75% RH and highlight irradiation (4500 lx±500 lx), the test time was 20 days, the sample bottles were placed under different test conditions, and samples were taken at 0 and 20 days to detect the total amount of impurities, and the test results were shown in Table 8 below.

[5] = Pharmacokinetic experiment, single intragastric dose in rats; assay type: in vivo, SD rats; conditions: single dose 10 mg/kg, 0.5% MC and 0.5% Tween80 in water
Experimental: 1) Preparation of animals 9 healthy male SD rats, each with a body weight of 220-230 g, were taken, fed with standard formulated granulated feed for rats at fixed times every day, and fasted for 12 hours before the experiment, and feeding was resumed after 4 hours of administration. Rats were free to drink water before, after and during the experiment. 9 rats were randomly divided into 3 groups.
2) Formulation of drugs: The fused ring pyrimidine compound as shown in formula 1, the crystal form A of the fumarate of fused ring pyrimidine compound as shown in formula 2 and the crystal form B of the adipate of fused ring pyrimidine compound as shown in formula 3 were accurately weighed, and were formulated into a 1 mg/mL solution in water (Wahaha/111830) with 0.5% MC (Fluka/BCBK3534K) and 0.5% Tween80 (TCl/V4FSC), respectively.
3) Intragastric administration with single dose (10 mg/kg): in the first group, rats were intragastrically administered with a solution of the fused ring pyrimidine compound as shown in formula 1, in the second group, rats were intragastrically administered with a solution of the crystal form A of the fumarate of fused ring pyrimidine compound as shown in formula 2, and in the third group, rats were intragastrically administered with a solution of the crystal form B of the adipate of fused ring pyrimidine compound as shown in formula 3.
4) Collection of blood samples: About 150 μL of blood was taken from the fundus venous plexus before administration and 0.083, 0.25, 0.5, 1, 2, 4, 8 and 24 hours after administration from each rat in the three groups, and anticoagulated with K2EDTA, plasma was separated by centrifugation and the supernatant was collected for LC-MS analysis.

[6] = listed as The fumarate of fused ring pyrimidine compound as shown in formula 2
[7] = listed as The phosphate of fused ring pyrimidine compound as shown in formula 4
[8] = listed as The tartrate of fused ring pyrimidine compound as shown in formula 5
[9] = medium intestinal fluid in simulated fed state (FeSSIF)
[10] = medium pH 4 (50 mM phosphate buffer)
[11] = medium pH 6 (50 mM phosphate buffer)

- solubility ([1]; 50 mM phosphate buffer, pH 6, aqueous buffer, medium pH 6 (50 mM phosphate buffer)): 0.036 mg/mL (≈ 82.1 µM)
- solubility ([1]; FeSSIF, medium intestinal fluid in simulated fed state (FeSSIF)): 1.91 mg/mL (≈ 4350 µM)
SMILES: COc1cc(F)ccc1-c1c(C)sc2cnc(Nc3cnn(C4CCNCC4)c3)nc12

- saturated solubility [2]: 0.17 mg/mL
- solubility in pure water compared with the free base [2]: significantly improved
- DVS: Moisture-absorption weight gain at 85% RH [3, 6]: 85% RH: 0.324%
- DVS: Moisture-absorption weight gain at 95% RH [3, 6]: 95% RH: 0.404%
- XRPD of samples after DVS test [3, 6]: consistent
- DVS: Weight loss in drying stage [3, 6]: drying stage: 0.117%
SMILES: COc1cc(F)ccc1-c1c(C)sc2cnc(Nc3cnn(C4CCNCC4)c3)nc12 [Example 1]

- saturated solubility [2]: 0.52 mg/mL
- solubility in pure water compared with the free base [2]: significantly improved
SMILES: COc1cc(F)ccc1-c1c(C)sc2cnc(Nc3cnn(C4CCNCC4)c3)nc12 [Example 2]

- saturated solubility [2]: 0.675 mg/mL
- solubility in pure water compared with the free base [2]: significantly improved
- DVS: Moisture-absorption weight gain at 85% RH [3, 7]: 85% RH: 6.95%
- DVS: Moisture-absorption weight gain at 95% RH [3, 7]: 95% RH: 12.15%
- XRPD of samples after DVS test [3, 7]: consistent
- DVS: Weight loss in drying stage [3, 7]: drying stage: 0.752%
SMILES: COc1cc(F)ccc1-c1c(C)sc2cnc(Nc3cnn(C4CCNCC4)c3)nc12 [Example 3]

- saturated solubility [2]: 0.146 mg/mL
- solubility in pure water compared with the free base [2]: significantly improved
- DVS: Moisture-absorption weight gain at 85% RH [3, 8]: 85% RH: 8.390%
- DVS: Moisture-absorption weight gain at 95% RH [3, 8]: 95% RH: 8.659%
- DVS: Weight loss in drying stage [3, 8]: drying stage: 5.88%
SMILES: COc1cc(F)ccc1-c1c(C)sc2cnc(Nc3cnn(C4CCNCC4)c3)nc12 [Example 4]

- solubility in intestinal fluid (FeSSIF) in simulated fed state, in words ([1]; FeSSIF): high
- pH value of sample solution for solubility ([1]; medium Purified water): 7.27
- Solubility (calculated by free base of the fused ring pyrimidine compound) ([1]; medium Purified water): 0.126
- pH value of sample solution for solubility [1, 9]: 5.19
- pH value of sample solution for solubility [1, 10]: 4.33
- Solubility (calculated by free base of the fused ring pyrimidine compound) [1, 10]: 0.159
- pH value of sample solution for solubility [1, 11]: 5.96
- solubility in pure water compared to free base [1]: significantly improved
- Impurity content ([4]; Day 0): 0.25%
- Impurity content ([4]; Day 20, 25° C/60% RH): 0.25%
- Impurity content ([4]; Day 20, 40° C/75% RH): 0.28%
- Impurity content ([4]; Day 20, 60° C): 0.25%
- Impurity content ([4]; Day 20, Light (4500 lx±500 lx)): 0.46%
- chemical stability in the condition of high temperature and high humidity [4]: good chemical stability
- stability under light conditions versus the compound of formula 1 [4]: significantly higher
- DVS weight gain from 0% RH to 95% RH [3]: 0.2518%
- Blood drug concentration (AUC) [5]: 0.999 µg·h/mL
SMILES: COc1cc(F)ccc1-c1c(C)sc2cnc(Nc3cnn(C4CCNCC4)c3)nc12 [The crystal form A of the fumarate of fused ring pyrimidine ]

- pH value of sample solution for solubility ([1]; medium Purified water): 7.09
- Solubility (calculated by free base of the fused ring pyrimidine compound) ([1]; medium Purified water): 0.463
- pH value of sample solution for solubility [1, 9]: 5.2
- Solubility (calculated by free base of the fused ring pyrimidine compound) [1, 9]: 1.46
- pH value of sample solution for solubility [1, 10]: 4.85
- Solubility (calculated by free base of the fused ring pyrimidine compound) [1, 10]: 0.104
- pH value of sample solution for solubility [1, 11]: 6.01
- Solubility (calculated by free base of the fused ring pyrimidine compound) [1, 11]: 0.035
- solubility in pure water compared to free base [1]: significantly improved
- Impurity content ([4]; Day 0): 0.24%
- Impurity content ([4]; Day 20, 25° C/60% RH): 0.22%
- Impurity content ([4]; Day 20, 40° C/75% RH): 0.22%
- Impurity content ([4]; Day 20, 60° C): 0.23%
- Impurity content ([4]; Day 20, Light (4500 lx±500 lx)): 0.42%
- chemical stability in the condition of high temperature and high humidity [4]: good chemical stability
- stability under light conditions versus the compound of formula 1 [4]: significantly higher
- DVS weight gain from 0% RH to 95% RH [3]: 2.751%
- Blood drug concentration (AUC) [5]: 1.038 µg·h/mL
SMILES: COc1cc(F)ccc1-c1c(C)sc2cnc(Nc3cnn(C4CCNCC4)c3)nc12 [The crystal form B of the adipate of fused ring pyrimidine c]
